From patent US11452727B2, “Combination therapy for treating cancer” (Epizyme, Inc., priority 2017, dated 2022)

What was measured:
Test in all cases: In vitro combination study with tazemetostat, cell proliferation (Cell Titer Glo)
NCI-H1703 = conditions: 7 days tazemetostat pre-treatment, 6 days co-treatment with second agent
Method: (§1) Initial proliferation studies were performed to determine the IC50 of tazemetostat in each cell line. For the screen, tazemetostat was used at concentrations bracketed around the IC50 value. If 50% inhibitory concentration was not reached then tazemetostat was tested starting at 10 μM.
(§2) In order to study the effect of dual combination of tazemetostat and a second agent on cell proliferation, cells in log-linear phase growth rate were pre-treated with various concentrations of tazemetostat or DMSO for 7 days in flasks, plated in 384-well plates in the absence of compounds and co-treated on day 8 with tazemetostat or DMSO and the second agent serially diluted for additional 6 days (as depicted in FIG. 1). On day 15, plates were developed for endpoint analysis using Cell Titer Glo to measure ATP content, which was used as an indicator of cell viability. DMSO concentration was kept constant throughout the assay at 0.15% v/v.

NCI-H1793 = conditions: 7 days tazemetostat pre-treatment, 6 days co-treatment with second agent
Method: as §1, §2
(§3) NCI-H1573 was cultured in DMEM: F12 Medium containing the following components: 0.02 mg/ml insulin, 0.01 mg/ml transferrin, 25 nM sodium selenite, 50 nM Hydrocortisone, 1 ng/ml Epidermal Growth Factor, 0.01 mM ethanolamine, 0.01 mM phosphorylethanolamine, 100 pM triiodothyronine, 0.5% (w/v) bovine serum albumin, 0.5 mM sodium pyruvate, 4.5 mM L-glutamine and 1% v/v Pen/Strep.

NCI-H23 = conditions: 7 days tazemetostat pre-treatment, 6 days co-treatment with second agent
Method: as §1, §2
(§4) All cell lines were obtained from American Type Culture Collection (ATCC; Rockville, Md.). […] A427, Calu-3, Calu-6 cell lines were cultured in EMEM+10% Fetal bovine serum (FBS)+1% v/v Penicillin/Streptomycin (P/S).

NCI-H2030 = conditions: 7 days tazemetostat pre-treatment, 6 days co-treatment with second agent
Method: as §1, §2

NCI-H522 = conditions: 7 days tazemetostat pre-treatment, 6 days co-treatment with second agent
A549 = conditions: 7 days tazemetostat pre-treatment, 6 days co-treatment with second agent
Method: as §1, §2

HCC827 = conditions: 7 days tazemetostat pre-treatment, 6 days co-treatment with second agent
Calu-3 = conditions: 7 days tazemetostat pre-treatment, 6 days co-treatment with second agent
Method: as §1, §2, §3

NCI-H1299 = conditions: 7 days tazemetostat pre-treatment, 6 days co-treatment with second agent
NCI-H460 = conditions: 7 days tazemetostat pre-treatment, 6 days co-treatment with second agent
Method: as §1, §2, §4

A427 = conditions: A427; 7 days tazemetostat pre-treatment, 6 days co-treatment with second agent
Method: as §1, §2, §4

NCI-H1993 = conditions: 7 days tazemetostat pre-treatment, 6 days co-treatment with second agent
Method: as §1, §2

NCI-H2110 = conditions: 7 days tazemetostat pre-treatment, 6 days co-treatment with second agent
Method: as §1, §2

NCI-H838 = conditions: 7 days tazemetostat pre-treatment, 6 days co-treatment with second agent
Method: as §1, §2, §3

NCI-H1573 = conditions: 7 days tazemetostat pre-treatment, 6 days co-treatment with second agent
NCI-H661 = conditions: 7 days tazemetostat pre-treatment, 6 days co-treatment with second agent
NCI-H2122 = conditions: 7 days tazemetostat pre-treatment, 6 days co-treatment with second agent
Method: as §1, §2, §4

Calu-6 = conditions: 7 days tazemetostat pre-treatment, 6 days co-treatment with second agent

SMILES | combinatorial effect with tazemetostat (Loewe volume class) (NCI-H1703) | combinatorial effect with tazemetostat (Loewe volume class) (NCI-H1793) | combinatorial effect with tazemetostat (Loewe volume class) (NCI-H23) | combinatorial effect with tazemetostat (Loewe volume class) (NCI-H2030) | combinatorial effect with tazemetostat (Loewe volume class) (NCI-H522) | combinatorial effect with tazemetostat (Loewe volume class) (A549) | combinatorial effect with tazemetostat (Loewe volume class) (HCC827) | combinatorial effect with tazemetostat (Loewe volume class) (Calu-3) | combinatorial effect with tazemetostat (Loewe volume class) (NCI-H1299) | combinatorial effect with tazemetostat (Loewe volume class) (NCI-H460) | combinatorial effect with tazemetostat (Loewe volume class) (A427) | combinatorial effect with tazemetostat (Loewe volume class) (NCI-H1993) | combinatorial effect with tazemetostat (Loewe volume class) (NCI-H2110) | combinatorial effect with tazemetostat (Loewe volume class) (NCI-H838) | combinatorial effect with tazemetostat (Loewe volume class) (NCI-H1573) | combinatorial effect with tazemetostat (Loewe volume class) (NCI-H661) | combinatorial effect with tazemetostat (Loewe volume class) (NCI-H2122) | combinatorial effect with tazemetostat (Loewe volume class) (Calu-6)
C=CC(=O)Nc1cc(Nc2nccc(-c3cn(C)c4ccccc34)n2)c(OC)cc1N(C)CCN(C)C [AZD9291] | Add. (A value between −1 and 1 denoted “additivity”) | Syn. (Loewe volumes greater than 1 denoted “synergy”) | Add. (A value between −1 and 1 denoted “additivity”) | Add. (A value between −1 and 1 denoted “additivity”) | Syn. (Loewe volumes greater than 1 denoted “synergy”) | Add. (A value between −1 and 1 denoted “additivity”) | Add. (A value between −1 and 1 denoted “additivity”) | Syn. (Loewe volumes greater than 1 denoted “synergy”) | Add. (A value between −1 and 1 denoted “additivity”) | Add. (A value between −1 and 1 denoted “additivity”) | Anta. (volumes <−1 denoted “antagonism”) | Add. (A value between −1 and 1 denoted “additivity”) | Syn. (Loewe volumes greater than 1 denoted “synergy”) | Syn. (Loewe volumes greater than 1 denoted “synergy”) | Add. (A value between −1 and 1 denoted “additivity”) | Anta. (volumes <−1 denoted “antagonism”) | Anta. (volumes <−1 denoted “antagonism”) | –
CNC(=O)Cn1cc(-c2ccc3c(c2)[C@H](F)C[C@]32NC(=O)N(CC(=O)N(Cc3ccc(F)cc3)[C@@H](C)C(F)(F)F)C2=O)cn1 [Cmpd H] | – | Syn. (Loewe volumes greater than 1 denoted “synergy”) | Anta. (volumes <−1 denoted “antagonism”) | – | – | – | Add. (A value between −1 and 1 denoted “additivity”) | Syn. (Loewe volumes greater than 1 denoted “synergy”) | – | Syn. (Loewe volumes greater than 1 denoted “synergy”) | Syn. (Loewe volumes greater than 1 denoted “synergy”) | Syn. (Loewe volumes greater than 1 denoted “synergy”) | Add. (A value between −1 and 1 denoted “additivity”) | Add. (A value between −1 and 1 denoted “additivity”) | Anta. (volumes <−1 denoted “antagonism”) | Anta. (volumes <−1 denoted “antagonism”) | Add. (A value between −1 and 1 denoted “additivity”) | Add. (A value between −1 and 1 denoted “additivity”)
C#Cc1cccc(Nc2ncnc3cc(OCCOC)c(OCCOC)cc23)c1 [Erlotinib, erlotinib] | – | – | – | – | – | – | Syn. (Loewe volumes greater than 1 denoted “synergy”) | – | – | – | – | – | – | – | – | – | – | –
C[C@]12C=CC(=O)C=C1CC[C@@H]1[C@@H]2[C@@H](O)C[C@@]2(C)[C@H]1CC[C@]2(O)C(=O)CO [Prednisolone, prednisolone] | No eff. | Syn. (Loewe volumes greater than 1 denoted “synergy”) | No eff. | No eff. | No eff. | Add. (A value between −1 and 1 denoted “additivity”) | Anta. (volumes <−1 denoted “antagonism”) | No eff. | – | Add. (A value between −1 and 1 denoted “additivity”) | Add. (A value between −1 and 1 denoted “additivity”) | No eff. | No eff. | No eff. | Syn. (Loewe volumes greater than 1 denoted “synergy”) | No eff. | Anta. (volumes <−1 denoted “antagonism”) | Syn. (Loewe volumes greater than 1 denoted “synergy”)
C[C@]1(c2nc3c(C(N)=O)cccc3[nH]2)CCCN1 [Veliparib, veliparib] | No eff. | No eff. | No eff. | No eff. | No eff. | No eff. | Syn. (Loewe volumes greater than 1 denoted “synergy”) | No eff. | – | Add. (A value between −1 and 1 denoted “additivity”) | Syn. (Loewe volumes greater than 1 denoted “synergy”) | No eff. | No eff. | No eff. | Syn. (Loewe volumes greater than 1 denoted “synergy”) | No eff. | Anta. (volumes <−1 denoted “antagonism”) | No eff.
CCCS(=O)(=O)Nc1ccc(F)c(C(=O)c2c[nH]c3ncc(-c4ccc(Cl)cc4)cc23)c1F [Vemurafenib, vemurafenib] | – | – | – | – | – | – | No eff. | – | – | – | – | – | – | – | – | – | – | –
